Data taken from patent US10308643B2, “Heterocyclic compound” (Takeda Pharmaceutical Company Limited, priority 2015, dated 2019).

Columns and labels:
Format in all cases: biochemical
HDAC1 enzyme = biological target: T1, HDAC1 enzyme (Homo sapiens, UniProt Q13547); assay: HDAC1/6 Enzyme Inhibitory Assay (HDAC-Glo I/II Assay kit), HDAC1; conditions: 1 μM test compound, wells without enzyme = 100% inhibition; for inhibition at 1 µM: read-out: HDAC1 inhibitory rate (%) (1 μM)
T1 construct: transducing full length HDAC1 and HDAC6 genes into Sf-9 insect cells; GST; purchased SignalChem; host or cells: Sf-9 insect cells
T1 sequence (Q13547 whole entry): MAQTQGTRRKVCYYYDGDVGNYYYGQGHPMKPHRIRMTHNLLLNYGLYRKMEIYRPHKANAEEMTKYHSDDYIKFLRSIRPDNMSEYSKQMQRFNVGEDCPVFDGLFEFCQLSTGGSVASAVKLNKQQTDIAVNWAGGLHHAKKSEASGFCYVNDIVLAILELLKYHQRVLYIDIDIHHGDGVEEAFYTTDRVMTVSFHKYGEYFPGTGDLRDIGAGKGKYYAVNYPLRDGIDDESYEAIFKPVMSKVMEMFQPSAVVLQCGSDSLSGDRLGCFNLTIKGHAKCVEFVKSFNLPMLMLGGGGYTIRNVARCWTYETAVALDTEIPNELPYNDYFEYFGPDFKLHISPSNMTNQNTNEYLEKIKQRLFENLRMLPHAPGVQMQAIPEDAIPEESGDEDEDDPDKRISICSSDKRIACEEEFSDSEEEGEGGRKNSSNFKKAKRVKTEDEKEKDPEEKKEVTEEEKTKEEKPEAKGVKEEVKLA
Method in brief: (§1)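 Enzyme source: full-length HDAC1/HDAC6, Sf-9, GST-purified. Assay buffer 24 mM Tris-HCl (pH 7.5), 1 mM MgCl2, 0.35 mM KCl, 135 mM NaCl. Compound–enzyme 60 min RT, then HDAC-Glo reagent 20 min RT, luminescence; inhibition relative to no-enzyme control.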

HDAC9 enzyme = biological target: T2, HDAC9 enzyme (Homo sapiens, UniProt Q9UKV0); assay: HDAC9 Enzyme Inhibitory Assay (HDAC-Glo class IIa); conditions: 1 μM test compound, wells without enzyme = 100% inhibition; for inhibition at 1 µM: read-out: HDAC9 inhibitory rate (%) (1 μM)
T2 construct: transducing full length HDAC9 gene into Sf-9 insect cells; made in house; host or cells: Sf-9 insect cells
T2 sequence (Q9UKV0 whole entry, species assumed): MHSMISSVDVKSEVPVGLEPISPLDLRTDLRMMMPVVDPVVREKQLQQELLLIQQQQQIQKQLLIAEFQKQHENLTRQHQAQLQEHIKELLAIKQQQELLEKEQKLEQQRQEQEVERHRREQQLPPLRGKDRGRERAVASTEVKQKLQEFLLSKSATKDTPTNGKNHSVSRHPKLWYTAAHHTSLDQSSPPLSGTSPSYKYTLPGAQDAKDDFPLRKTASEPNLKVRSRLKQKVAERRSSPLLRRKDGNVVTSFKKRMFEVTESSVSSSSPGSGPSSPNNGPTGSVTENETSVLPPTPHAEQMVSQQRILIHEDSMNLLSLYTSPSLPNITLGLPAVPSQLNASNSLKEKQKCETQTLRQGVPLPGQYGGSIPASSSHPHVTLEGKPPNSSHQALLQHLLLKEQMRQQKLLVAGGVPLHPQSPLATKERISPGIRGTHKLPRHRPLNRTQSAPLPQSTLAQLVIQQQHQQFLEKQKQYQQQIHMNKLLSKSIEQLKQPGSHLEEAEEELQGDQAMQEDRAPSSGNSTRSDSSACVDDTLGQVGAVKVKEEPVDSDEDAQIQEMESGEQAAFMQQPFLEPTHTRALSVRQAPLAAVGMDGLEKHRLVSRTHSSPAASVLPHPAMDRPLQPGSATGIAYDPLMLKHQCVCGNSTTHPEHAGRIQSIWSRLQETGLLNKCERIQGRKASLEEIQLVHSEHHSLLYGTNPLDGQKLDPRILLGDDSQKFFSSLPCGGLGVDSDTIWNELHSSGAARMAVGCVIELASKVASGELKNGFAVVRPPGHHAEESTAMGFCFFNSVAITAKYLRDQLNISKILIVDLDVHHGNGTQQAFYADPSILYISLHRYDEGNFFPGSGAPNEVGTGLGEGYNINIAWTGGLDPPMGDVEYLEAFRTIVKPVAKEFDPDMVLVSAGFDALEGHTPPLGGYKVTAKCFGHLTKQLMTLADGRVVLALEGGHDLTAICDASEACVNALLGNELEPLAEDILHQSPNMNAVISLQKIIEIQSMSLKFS
Method in brief: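 Luminescent HDAC-Glo class IIa readout after a 20 min room-temperature reaction; relative inhibition referenced to enzyme-free wells as 100%. Test compound first preincubated 60 min with Sf-9-expressed, Ni-NTA-purified full-length HDAC9 in pH 7.5 Tris buffer containing 135 mM NaCl, 0.6 mM glutathione and 0.01% Tween-20.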

HDAC6 enzyme = biological target: T3, HDAC6 enzyme (Homo sapiens, UniProt Q9UBN7); assay: HDAC1/6 Enzyme Inhibitory Assay (HDAC-Glo I/II Assay kit), HDAC6; conditions: 1 μM test compound, wells without enzyme = 100% inhibition; for inhibition at 1 µM: read-out: HDAC6 inhibitory rate (%) (1 μM)
T3 construct: transducing full length HDAC1 and HDAC6 genes into Sf-9 insect cells; GST; purchased SignalChem; host or cells: Sf-9 insect cells
T3 sequence (Q9UBN7 1-1215): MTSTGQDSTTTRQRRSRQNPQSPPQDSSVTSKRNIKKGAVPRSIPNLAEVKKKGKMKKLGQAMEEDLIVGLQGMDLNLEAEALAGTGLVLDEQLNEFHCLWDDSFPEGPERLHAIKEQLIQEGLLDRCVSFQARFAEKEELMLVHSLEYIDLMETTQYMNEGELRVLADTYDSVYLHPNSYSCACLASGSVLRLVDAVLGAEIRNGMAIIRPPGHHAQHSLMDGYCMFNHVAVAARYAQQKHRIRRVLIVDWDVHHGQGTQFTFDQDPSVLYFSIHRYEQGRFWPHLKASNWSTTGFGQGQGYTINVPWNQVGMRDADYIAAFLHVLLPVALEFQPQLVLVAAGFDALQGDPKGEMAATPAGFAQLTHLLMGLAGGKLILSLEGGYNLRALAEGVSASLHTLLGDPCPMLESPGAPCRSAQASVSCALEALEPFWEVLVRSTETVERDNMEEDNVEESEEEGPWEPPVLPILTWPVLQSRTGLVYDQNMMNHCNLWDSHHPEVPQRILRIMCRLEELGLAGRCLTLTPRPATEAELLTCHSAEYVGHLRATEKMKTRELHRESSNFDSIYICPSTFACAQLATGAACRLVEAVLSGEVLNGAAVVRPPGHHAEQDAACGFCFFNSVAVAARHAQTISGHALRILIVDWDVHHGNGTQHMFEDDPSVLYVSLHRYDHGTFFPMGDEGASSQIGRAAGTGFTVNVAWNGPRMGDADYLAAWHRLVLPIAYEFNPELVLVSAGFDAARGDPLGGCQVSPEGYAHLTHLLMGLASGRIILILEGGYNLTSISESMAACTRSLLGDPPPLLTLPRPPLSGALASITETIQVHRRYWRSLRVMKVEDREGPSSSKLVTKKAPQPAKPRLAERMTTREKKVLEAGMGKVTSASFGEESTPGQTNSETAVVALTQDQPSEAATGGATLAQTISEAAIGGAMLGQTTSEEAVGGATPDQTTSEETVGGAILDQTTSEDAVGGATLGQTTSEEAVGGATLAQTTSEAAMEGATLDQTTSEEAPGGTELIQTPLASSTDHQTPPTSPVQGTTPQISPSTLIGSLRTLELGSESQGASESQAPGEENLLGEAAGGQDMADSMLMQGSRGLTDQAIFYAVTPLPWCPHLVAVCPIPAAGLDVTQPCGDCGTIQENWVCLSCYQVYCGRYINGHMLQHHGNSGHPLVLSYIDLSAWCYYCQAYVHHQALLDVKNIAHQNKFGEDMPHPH
Method in brief: as §1

| inhibition at 1 µM (HDAC1 enzyme) | inhibition at 1 µM (HDAC9 enzyme) | inhibition at 1 µM (HDAC6 enzyme) | HDAC1 inhibitory rate (%) (1 μM) (HDAC1 enzyme) | HDAC9 inhibitory rate (%) (1 μM) (HDAC9 enzyme) | HDAC6 inhibitory rate (%) (1 μM) (HDAC6 enzyme) | Structure (SMILES) |
| --- | --- | --- | --- | --- | --- | --- |
| 19% | 84% | 100% |  |  |  | O=C(N[C@@H]1CCOC[C@H]1N1Cc2ccc(-c3noc(C(F)(F)F)n3)cc2C1=O)[C@H]1CC1(F)F [Example 190, (1R)-2,2-difluoro-N-((3S,4R)-3-(1-oxo-6-(5-(trifluoromethyl)-1,2,4-oxadiazol-3-yl)-1,3-dihydro-2H-isoindol-2-yl)tetrahydro-2H-pyran-4-yl)cyclopropanecarboxamide] |
| 87% | 96% | 98% |  |  |  | CC(=O)N1CC[C@@H](N2Cc3ccc(-c4noc(C(F)(F)F)n4)cc3C2=O)[C@H](c2ccccc2)C1 [Example 20, 2-((3R,4R)-1-acetyl-3-phenylpiperidin-4-yl)-6-(5-(trifluoromethyl)-1,2,4-oxadiazol-3-yl)isoindolin-1-one] |
| 5% | 52% | 101% |  |  |  | CC1(C(=O)N[C@@H]2COCC[C@H]2N2Cc3ccc(-c4noc(C(F)(F)F)n4)cc3C2=O)COC1 [Example 83, 3-methyl-N-((3S,4R)-4-(1-oxo-6-(5-(trifluoromethyl)-1,2,4-oxadiazol-3-yl)-1,3-dihydro-2H-isoindol-2-yl)tetrahydro-2H-pyran-3-yl)oxetane-3-carboxamide] |
|  |  |  | 1% | 47% | 77% | O=C1CCCN1[C@@H]1CCOC[C@H]1N1Cc2ccc(-c3noc(C(F)(F)F)n3)cc2C1=O [Example 183, 2-((3S,4R)-4-(2-oxopyrrolidin-1-yl)tetrahydro-2H-pyran-3-yl)-6-(5-(trifluoromethyl)-1,2,4-oxadiazol-3-yl)isoindolin-1-one] |
| 17% | 88% | 78% |  |  |  | O=C1c2ccc(-c3noc(C(F)(F)F)n3)cc2CN1[C@H]1CCNC[C@H]1c1ccccc1 (relative stereo) [Example 79, cis-2-(3-phenylpiperidin-4-yl)-5-(5-(trifluoromethyl)-1,2,4-oxadiazol-3-yl)isoindolin-1-one] |
| 5% | 52% | 97% |  |  |  | O=C(N[C@@H]1CCOC[C@H]1N1Cc2ccc(-c3noc(C(F)(F)F)n3)cc2C1=O)[C@@H]1CCOC1 [Example 206, (3R)-N-((3S,4R)-3-(1-oxo-6-(5-(trifluoromethyl)-1,2,4-oxadiazol-3-yl)-1,3-dihydro-2H-isoindol-2-yl)tetrahydro-2H-pyran-4-yl)tetrahydrofuran-3-carboxamide] |
| 11% | 79% | 87% |  |  |  | CC(=O)N1CC(N2Cc3ncc(-c4noc(C(F)(F)F)n4)cc3C2=O)C1 [Example 75, 6-(1-acetylazetidin-3-yl)-3-(5-(trifluoromethyl)-1,2,4-oxadiazol-3-yl)-6,7-dihydro-5H-pyrrolo[3,4-b]pyridin-5-one] |
|  |  |  | 13% | 72% | 99% | O=C1CCCN1[C@@H]1COCC[C@H]1N1Cc2ccc(-c3noc(C(F)(F)F)n3)cc2C1=O [Example 180, 2-((3S,4R)-3-(2-oxopyrrolidin-1-yl)tetrahydro-2H-pyran-4-yl)-6-(5-(trifluoromethyl)-1,2,4-oxadiazol-3-yl)isoindolin-1-one] |
| 39% | 82% | 94% |  |  |  | O=C1c2ccc(-c3noc(C(F)(F)F)n3)cc2CN1[C@@H]1CCNC[C@H]1c1ccccc1 (relative stereo) [Example 136, trans-2-(3-phenylpiperidin-4-yl)-5-(5-(trifluoromethyl)-1,2,4-oxadiazol-3-yl)isoindolin-1-one] |
| 99% | 99% | 98% |  |  |  | O=C1c2cc(-c3noc(C(F)(F)F)n3)ccc2CN1C1CCNC[C@@H]1c1cc(Cl)cc(Cl)c1 (stereo in doubt) [Example 58, 2-(trans-3-(3,5-dichlorophenyl)piperidin-4-yl)-6-(5-(trifluoromethyl)-1,2,4-oxadiazol-3-yl)isoindolin-1-one] |
|  |  |  | 12% | 58% | 82% | O=C(N[C@@H]1CCOC[C@@H]1N1Cc2ccc(-c3noc(C(F)(F)F)n3)cc2C1=O)C1CC1(F)F (single isomer, unassigned) [Example 212, (1R) or (1S)-2,2-difluoro-N-((3R,4R)-3-(1-oxo-6-(5-(trifluoromethyl)-1,2,4-oxadiazol-3-yl)-1,3-dihydro-2H-isoindol-2-yl)tetrahydro-2H-pyran-4-yl)cyclopropanecarboxamide] |
| 10% | 43% | 98% |  |  |  | CC(=O)N[C@@H]1CCCC[C@H]1N1Cc2ccc(-c3noc(C(F)(F)F)n3)cc2C1=O (relative stereo) [Example 8, trans-N-(2-(1-oxo-6-(5-(trifluoromethyl)-1,2,4-oxadiazol-3-yl)-1,3-dihydro-2H-isoindol-2-yl)cyclohexyl)acetamide] |
| 16% | 76% | 36% |  |  |  | CC(C)(C)OC(=O)N[C@H]1CCCC[C@@H]1N1Cc2ccc(-c3noc(C(F)(F)F)n3)cc2C1=O [Example 27, tert-butyl ((1S,2S)-2-(1-oxo-6-(5-(trifluoromethyl)-1,2,4-oxadiazol-3-yl)-1,3-dihydro-2H-isoindol-2-yl)cyclohexyl)carbamate] |
| 7% | 56% | 98% |  |  |  | O=C1CCCN1c1ccccc1N1Cc2ccc(-c3noc(C(F)(F)F)n3)cc2C1=O [Example 184, 2-(2-(2-oxopyrrolidin-1-yl)phenyl)-6-(5-(trifluoromethyl)-1,2,4-oxadiazol-3-yl)isoindolin-1-one] |
| 27% | 41% | 39% |  |  |  | CC(C)(C)OC(=O)N[C@@H]1CCC[C@H]1N1Cc2ccc(-c3noc(C(F)(F)F)n3)cc2C1=O [Example 140, tert-butyl ((1R,2R)-2-(1-oxo-6-(5-(trifluoromethyl)-1,2,4-oxadiazol-3-yl)-1,3-dihydro-2H-isoindol-2-yl)cyclopentyl)carbamate] |
| 7% | 49% | 99% |  |  |  | O=C(N[C@@H]1CCOC[C@H]1N1Cc2ccc(-c3noc(C(F)(F)F)n3)cc2C1=O)[C@@H]1CC1(F)F [Example 172, (1S)-2,2-difluoro-N-((3S,4R)-3-(1-oxo-6-(5-(trifluoromethyl)-1,2,4-oxadiazol-3-yl)-1,3-dihydro-2H-isoindol-2-yl)tetrahydro-2H-pyran-4-yl)cyclopropanecarboxamide] |
| 15% | 81% | 91% |  |  |  | CC(=O)N1CCC(N2Cc3ncc(-c4noc(C(F)(F)F)n4)cc3C2=O)C1 (stereo not drawn) [Example 69, 6-(1-acetylpyrrolidin-3-yl)-3-(5-(trifluoromethyl)-1,2,4-oxadiazol-3-yl)-6,7-dihydro-5H-pyrrolo[3,4-b]pyridin-5-one] |
|  | 38% | 100% | 4% |  |  | O=C(N[C@@H]1CCCC[C@H]1N1Cc2ccc(-c3noc(C(F)(F)F)n3)cc2C1=O)C1CCCCCO1 (stereo partly drawn) [Example 119, N-((1R,2R)-2-(1-oxo-6-(5-(trifluoromethyl)-1,2,4-oxadiazol-3-yl)-1,3-dihydro-2H-isoindol-2-yl)cyclohexyl)oxepane-2-carboxamide] |
